The text below walks through data of paper PMC5831858, “Pharmacological characterisation of CR6086, a potent prostaglandin E2 receptor 4 antagonist, as a new potential disease-modifying anti-rheumatic drug” (Arthritis Research & Therapy, 2018).

Assay [1] has as its target NK2 (Homo sapiens, UniProt P21452). Description: Neurokinin receptor NK2 binding. As to conditions: [^125I]NKA, Human recombinant CHO cells, read-out: CR6086 Activity at 10µM.
For assay [2], the target named is ETB (Homo sapiens, UniProt P24530). Description: Endothelin receptor ETB binding. As to conditions: [^125I]endothelin-1, Human recombinant CHO cells, read-out: CR6086 Activity at 10µM.
Chain of ETB (P24530 27-442): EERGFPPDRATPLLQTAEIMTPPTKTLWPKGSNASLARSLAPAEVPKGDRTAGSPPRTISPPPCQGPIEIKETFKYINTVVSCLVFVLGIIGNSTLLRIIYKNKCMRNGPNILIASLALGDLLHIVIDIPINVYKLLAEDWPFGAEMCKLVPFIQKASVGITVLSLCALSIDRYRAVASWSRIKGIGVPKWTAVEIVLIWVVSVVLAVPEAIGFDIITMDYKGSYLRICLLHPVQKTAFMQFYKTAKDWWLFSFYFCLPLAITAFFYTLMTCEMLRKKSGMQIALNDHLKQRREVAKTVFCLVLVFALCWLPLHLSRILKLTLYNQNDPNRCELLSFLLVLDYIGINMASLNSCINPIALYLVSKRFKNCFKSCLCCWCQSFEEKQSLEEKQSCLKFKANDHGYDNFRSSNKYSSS
Assay [3] has as its system BZD (central). Description: Benzodiazepine receptor (central) binding. The conditions noted are these: [^3H]flunitrazepam, Rat cerebral cortex.
In assay [4] the test system is arthritic rats (collagen-induced arthritis model). Description: Collagen-induced arthritis in rats: clinical score, oedema, histology. In kind it is in vivo, rat. The protocol: Male Lewis rats were immunised by intradermal injection at the base of the tail with an emulsion containing 150 μg of bovine collagen type II (bCII) in complete Freund’s adjuvant (CFA) or received an injection with incomplete Freund’s adjuvant (sham group). Three weeks after the first immunisation, animals were boosted with the same procedure. Three days after booster injection, arthritis had developed in all animals but the sham group. Oedema was assessed via plethysmometer (Ugo Basile, Varese, Italy), and the animals were then randomised to treatment groups. Oedema measurement was performed again after 7 and 14 days of treatment. Animals were blindly scored by two different investigators for clinical signs of arthritis (redness, swelling, pain of hind limb joints) as follows: 0 = normal; 1 = mild but definite redness and swelling of the ankle or wrist or individual digits, regardless of the number of affected digits; 2 = moderate redness and swelling of ankle or wrist; 3 = severe redness and swelling of the entire paw including digits; and 4 = maximally inflamed limb with involvement of multiple joints. The mean of the scores assigned by the investigators was calculated.
Three different experiments in rat CIA are reported: a dose-response study, as well as two comparative studies vs the COX-2 inhibitor rofecoxib and the Janus kinase (JAK) inhibitor tofacitinib, respectively.
Briefly, the paws were fixed in 10% neutral buffered formalin (Bio-Optica, Milan, Italy) and subsequently decalcified in EDTA for 4 weeks. Samples were dehydrated in an ethanol series and embedded in paraffin. At least three non-consecutive sections for each paw were blindly scored at the level of the tarsus, metatarsus and calcaneus for the following histological features: synovial oedema, pannus, synovial inflammatory cell infiltrate, cartilage damage, osteolysis and woven bone. Based on these histological features, a synovial score (synovial oedema, plus synovial inflammatory cell infiltrate, plus pannus), a bone score (woven bone plus osteolysis) and a total score were calculated. Two independent pathologists performed histopathology on blinded slides. The data of right and left hind limbs were summed for each rat.

In assay [5] the target is D3 (Homo sapiens, UniProt P35462). Description: Dopamine receptor D3 binding. As to conditions: [^3H]methyl-spiperone, Human recombinant CHO cells, read-out: CR6086 Activity at 10µM.
Chain of D3 (P35462 whole entry): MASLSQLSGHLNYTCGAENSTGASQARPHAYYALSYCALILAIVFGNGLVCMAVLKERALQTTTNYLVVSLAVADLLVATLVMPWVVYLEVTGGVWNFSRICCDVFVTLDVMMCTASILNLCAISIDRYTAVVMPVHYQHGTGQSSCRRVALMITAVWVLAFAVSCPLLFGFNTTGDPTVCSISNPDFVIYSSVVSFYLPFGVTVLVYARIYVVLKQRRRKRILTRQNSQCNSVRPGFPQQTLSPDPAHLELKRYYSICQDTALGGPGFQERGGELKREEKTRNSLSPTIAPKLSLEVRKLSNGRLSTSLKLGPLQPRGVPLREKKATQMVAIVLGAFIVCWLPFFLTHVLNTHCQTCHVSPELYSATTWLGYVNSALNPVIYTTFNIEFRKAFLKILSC
The target in assay [6] is M3 (Homo sapiens, UniProt P20309). Description: Muscarinic acetylcholine receptor M3 binding. As to conditions: [^3H]4-DAMP, Human recombinant CHO cells, read-out: CR6086 Activity at 10µM.
Chain of M3 (P20309 whole entry): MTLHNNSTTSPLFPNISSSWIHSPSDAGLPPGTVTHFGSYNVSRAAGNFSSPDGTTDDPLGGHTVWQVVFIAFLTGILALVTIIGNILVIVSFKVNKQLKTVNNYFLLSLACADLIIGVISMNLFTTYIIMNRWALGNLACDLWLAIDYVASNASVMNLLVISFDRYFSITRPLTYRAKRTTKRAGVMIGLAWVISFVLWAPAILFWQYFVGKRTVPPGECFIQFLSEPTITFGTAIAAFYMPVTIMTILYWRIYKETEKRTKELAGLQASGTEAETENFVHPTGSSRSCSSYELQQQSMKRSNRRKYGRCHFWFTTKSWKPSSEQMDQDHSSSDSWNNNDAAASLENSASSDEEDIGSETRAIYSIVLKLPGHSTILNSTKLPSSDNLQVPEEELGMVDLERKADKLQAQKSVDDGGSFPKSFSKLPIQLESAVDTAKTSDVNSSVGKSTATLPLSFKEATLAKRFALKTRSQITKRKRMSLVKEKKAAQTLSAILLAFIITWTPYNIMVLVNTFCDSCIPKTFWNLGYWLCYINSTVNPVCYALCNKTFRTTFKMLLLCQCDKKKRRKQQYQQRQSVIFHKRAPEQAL
For assay [7], the target named is T1, EP1 (Homo sapiens, UniProt P34995).
T1 construct: host or cells: HEK-293 cells
T1 sequence (P34995 whole entry): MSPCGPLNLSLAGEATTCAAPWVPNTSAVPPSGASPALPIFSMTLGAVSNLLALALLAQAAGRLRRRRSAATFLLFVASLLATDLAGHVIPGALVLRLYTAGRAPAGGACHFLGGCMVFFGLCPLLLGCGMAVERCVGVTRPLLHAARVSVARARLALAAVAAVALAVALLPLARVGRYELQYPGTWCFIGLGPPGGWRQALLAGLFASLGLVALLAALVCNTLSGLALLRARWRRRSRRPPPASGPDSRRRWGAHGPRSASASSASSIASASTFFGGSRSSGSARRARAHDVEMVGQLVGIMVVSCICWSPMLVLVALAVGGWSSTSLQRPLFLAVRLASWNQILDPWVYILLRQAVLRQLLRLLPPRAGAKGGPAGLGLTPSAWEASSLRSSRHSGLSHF
Description: Eicosanoid receptor EP1 binding. The conditions noted are these: [^3H]PGE2, HEK-293 cells, read-out: CR6086 Activity at 10µM.

In assay [8] the target is T2, EP3 (Homo sapiens, UniProt P43115).
T2 construct: host or cells: HEK-293 cells
T2 sequence (P43115 whole entry): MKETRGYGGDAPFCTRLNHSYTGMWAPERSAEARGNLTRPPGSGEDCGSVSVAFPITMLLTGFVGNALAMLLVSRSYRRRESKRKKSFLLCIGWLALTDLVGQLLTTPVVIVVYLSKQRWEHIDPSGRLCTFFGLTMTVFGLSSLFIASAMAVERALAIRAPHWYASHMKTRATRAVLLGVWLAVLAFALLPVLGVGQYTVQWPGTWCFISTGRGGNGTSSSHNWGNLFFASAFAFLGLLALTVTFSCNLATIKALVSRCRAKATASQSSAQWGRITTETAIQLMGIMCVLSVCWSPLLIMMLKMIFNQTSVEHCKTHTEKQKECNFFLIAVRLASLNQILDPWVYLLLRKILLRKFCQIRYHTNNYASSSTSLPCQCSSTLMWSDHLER
Description: Eicosanoid receptor EP3 binding. The conditions noted are these: [^3H]PGE2, HEK-293 cells, read-out: CR6086 Activity at 10µM.

Assay [9] has as its system SKCa channel. Description: Ion channel SKCa binding. As to conditions: [^125I]apamin, Rat cerebral cortex.
For assay [10], the system named is Ca2+ channel (L, verapamil site). Description: Ion channel Ca2+ (L, verapamil site) binding. The conditions noted are these: up to 100µM (cell); [^3H]verapamil [^3H]D888; Rat cerebral cortex.
The target in assay [11] is T3, COX-2 (Homo sapiens, UniProt P35354).
T3 construct: host or cells: Sf9 cells
T3 sequence (P35354 18-604): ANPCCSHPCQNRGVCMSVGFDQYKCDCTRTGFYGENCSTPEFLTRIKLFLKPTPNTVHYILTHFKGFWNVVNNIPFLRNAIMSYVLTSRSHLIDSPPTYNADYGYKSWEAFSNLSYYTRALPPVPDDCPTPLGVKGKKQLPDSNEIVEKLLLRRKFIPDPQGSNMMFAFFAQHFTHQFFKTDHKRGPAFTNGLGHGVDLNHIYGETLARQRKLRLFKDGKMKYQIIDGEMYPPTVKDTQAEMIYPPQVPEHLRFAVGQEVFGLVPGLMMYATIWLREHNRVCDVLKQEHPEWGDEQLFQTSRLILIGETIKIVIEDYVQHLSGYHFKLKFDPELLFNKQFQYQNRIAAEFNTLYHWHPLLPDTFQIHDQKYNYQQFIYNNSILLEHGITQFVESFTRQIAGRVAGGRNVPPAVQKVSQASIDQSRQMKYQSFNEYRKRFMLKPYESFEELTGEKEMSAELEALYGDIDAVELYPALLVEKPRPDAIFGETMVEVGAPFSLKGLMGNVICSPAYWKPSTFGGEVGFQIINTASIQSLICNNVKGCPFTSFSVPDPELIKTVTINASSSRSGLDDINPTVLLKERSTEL
Description: Cyclooxygenase COX-2 enzymatic activity. As to conditions: Sf9 cells, read-out: CR6086 Activity at 10µM. In kind it is biochemical.

The subject of assay [12] is IL-6 gene expression. Description: IL-6 gene expression in THP-1 cells differentiated to macrophages. As to conditions: Homo sapiens, LPS 10 ng/ml + PGE2 10 nM, read-out: IC50 transcription of IL-6. It is filed as cell-based. The protocol:
(§1) The human monocyte cell line THP-1 was obtained from the ATCC and was grown according to the instructions provided. THP-1 monocytic cells were differentiated to macrophages with 100 nM phorbol 12-myristate 13-acetate (PMA) for 4 days. Macrophages were then stimulated with lipopolysaccharide (LPS) 10 ng/ml and PGE2 10 nM for 3 or 24 h. Total RNA was purified using the ABI Prism 6100 Nucleic Acid PrepStation (Applied Biosystems, Foster City, CA, USA) and retrotranscribed using the High-Capacity cDNA Reverse Transcription Kit (Thermo Fisher Scientific). RT-PCR analysis was performed using the Applied Biosystems 7500 Fast Real-Time PCR System using specific TaqMan assays (number Hs00174131_m1 for IL-6, number Hs00900054_m1 for vascular endothelial growth factor A [VEGFA]; Thermo Fisher Scientific) and, as an endogenous control, the 18S Pre-Developed TaqMan® Assay (Thermo Fisher Scientific). The data analysis, with normalisation on 18S amplified values, was done following Thermo Fisher Scientific’s specific instructions for gene expression relative quantification. All individual data are the result of at least three different analyses for each sample.

In assay [13] the test system is VEGF gene expression. Description: VEGF gene expression in THP-1 cells differentiated to macrophages. In kind it is cell-based. As to conditions: Homo sapiens, LPS 10 ng/ml + PGE2 10 nM, read-out: IC50 transcription of VEGF. The protocol: as §1
The target in assay [14] is A1 (Homo sapiens, UniProt P30542). Description: Adenosine receptor A1 binding. The conditions noted are these: [^3H]DPCPX, Human recombinant CHO cells, read-out: CR6086 Activity at 10µM.
Chain of A1 (P30542 whole entry): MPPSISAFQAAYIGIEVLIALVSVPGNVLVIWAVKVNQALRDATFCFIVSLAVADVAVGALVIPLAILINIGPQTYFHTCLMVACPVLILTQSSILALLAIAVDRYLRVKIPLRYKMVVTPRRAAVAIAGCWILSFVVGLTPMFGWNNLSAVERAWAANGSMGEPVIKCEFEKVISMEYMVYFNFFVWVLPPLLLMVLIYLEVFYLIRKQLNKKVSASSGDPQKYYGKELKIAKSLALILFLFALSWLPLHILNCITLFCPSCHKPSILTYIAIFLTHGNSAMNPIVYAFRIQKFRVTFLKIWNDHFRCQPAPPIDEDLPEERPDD
Assay [15] addresses GAL1 (Homo sapiens, UniProt P47211). Description: Galanin receptor GAL1 binding. The conditions noted are these: [^125I]galanin, Human recombinant HEK-293 cells, read-out: CR6086 Activity at 10µM.
Assay [16] concerns the target BZD (peripheral) (Rattus norvegicus, UniProt P16257). Description: Benzodiazepine receptor (peripheral) binding. The conditions noted are these: [^3H]PK 11195, Rat heart, read-out: CR6086 Activity at 10µM.

Entries after “also recorded” stand apart in the source; their conditions may differ.

Chain of NK2 (P21452 whole entry): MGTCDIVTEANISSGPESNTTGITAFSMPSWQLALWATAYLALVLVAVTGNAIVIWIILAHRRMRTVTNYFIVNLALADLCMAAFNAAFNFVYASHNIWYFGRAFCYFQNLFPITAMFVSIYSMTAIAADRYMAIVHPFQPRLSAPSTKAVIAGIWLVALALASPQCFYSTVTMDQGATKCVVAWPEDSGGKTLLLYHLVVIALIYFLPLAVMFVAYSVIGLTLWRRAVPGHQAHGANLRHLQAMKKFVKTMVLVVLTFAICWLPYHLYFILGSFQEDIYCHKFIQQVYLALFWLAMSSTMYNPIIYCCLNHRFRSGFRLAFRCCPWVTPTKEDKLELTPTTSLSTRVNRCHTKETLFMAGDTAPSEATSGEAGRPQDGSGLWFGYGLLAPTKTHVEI
Chain of GAL1 (P47211 whole entry): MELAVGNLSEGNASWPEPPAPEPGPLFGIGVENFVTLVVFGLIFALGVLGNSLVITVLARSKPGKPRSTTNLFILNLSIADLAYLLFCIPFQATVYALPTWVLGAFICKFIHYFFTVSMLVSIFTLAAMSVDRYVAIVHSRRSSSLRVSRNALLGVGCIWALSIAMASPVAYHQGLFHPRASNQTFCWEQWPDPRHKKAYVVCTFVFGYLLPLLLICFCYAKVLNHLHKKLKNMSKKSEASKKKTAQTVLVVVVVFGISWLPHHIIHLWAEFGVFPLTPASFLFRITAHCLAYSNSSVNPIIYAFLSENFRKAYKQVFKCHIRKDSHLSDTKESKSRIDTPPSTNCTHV

One may read the IC50 as the concentration that inhibits the measured activity by half. Turning to `O=C([O-])c1ccc(C2(NC(=O)[C@H]3CC4(CCN3Cc3ccc(C(F)(F)F)cc3)CC4)CC2)cc1.[Na+]` [CR6086, Sodium (R)-4-(1-(6-(4-(trifluoromethyl)benzyl)-6-azaspiro[2.5]octane-5-carboxamido)cyclopropyl)benzoate], the inhibition at 10 µM in assay [1], in assay [2], in assay [5], in assay [6], in assay [7] and in assay [8] was below 20% throughout. In addition, the inhibition at 10 µM in assay [11], in [14], in assay [15] and in [16] was below 20% in each case. The “CR6086 Activity at 10µM” value in assay [3] is “IN (IN = < 20% displacement or inhibition (all tables))”; in [9] it was “IN (IN = < 20% displacement or inhibition (all tables))”; in assay [10] it was “IN up to 100µM (IN = < 20% displacement or inhibition (all tables))”. Moreover, the “effect on structural and inflammatory parameters (oedema, histology)” value in assay [4] (15 mg/kg once daily, 14 days) is “markedly and significantly improved all the structural and inflammatory parameters”. Also, in assay [4] (1-10 mg/kg oral daily, 1 h and 24 h post-dosing), the “effect on arthritis clinical score and oedema” value is “significantly and dose-dependently reduced”. Moreover, the “efficacy relative to active comparators” value in assay [4] (CR6086 15 mg/kg once daily, rofecoxib 5–15 mg/kg once daily, tofacitinib 5–25 mg/kg twice daily) is listed as “more effective than rofecoxib; also recorded: as effective as, but more potent than, tofacitinib”. Further, the “dose at which efficacy plateaued” value in [4] (oral, once daily, 14 days) is listed as “around 10 mg/kg”. Besides, the minimum effective dose in assay [4] (oral, once daily, 14 days) is 1 mg/kg. Besides, the 50% inhibitory concentration (IC50) in assay [12] turned out to be 70 nM; in assay [13], 25 nM.
